Measurements: patent US20260001910A1, “PEPTIDES AND USES THEREOF” (PreveCeutical Medical Inc., priority 2021, published 2026)

How the values were obtained:
[1] = target: T1, recombinant MMP-2 (Homo sapiens, UniProt P08253); assay: MMP-2 Inhibitor Screening Assay Kit (colorimetric); assay type: biochemical; conditions: lower % = higher inhibitory activity
T1 construct: purchased ab139446
Procedure: MMP-2 is an important target for inhibitor screening due to its involvement in cancer growth, angiogenesis, and metastasis. The MMP-2 screening assay was carried out with a commercially available MMP-2 Inhibitor Screening Assay Kit (Colorimetric, Catalog: ab139446) based on the manufacturers protocol. This assay is based on quantification of recombinant MMP-2 activity using a colorimetric assay (MMP-2 degrades a chromogenic substrate). The assay provides NNGH (N-isobutyl-N-(4-methoxyphenylsulfonyl) glycyl hydroxamic acid), a small molecule inhibitor, as a positive control (NNGH). […] Each determination was run in duplicate.
Briefly, MMP Substrate and MMP Inhibitor were warmed to room temperature to thaw DMSO. MMP Inhibitor (NNGH), MMP-2 substrate and MMP-2 enzyme were diluted with assay buffer to required concentration. 20 μL of MMP-2 enzyme and MMP-2 inhibitor (peptides, Chlorotoxin and NNGH) was added, then 50 μL of assay buffer was added and the reaction mixture incubated at 37° C. for 1 h. After incubation, 10 μL of MMP Substrate was added to start reaction. The reactions were continuously read at 412 nm in a microplate reader. Data was recorded at 1 min. time intervals for 10 to 20 min. The data as was plotted as optical density (OD) versus time for each sample. The reaction velocity (V) was obtained in OD/min: determine the slope of a line fit to the linear portion of the data plot using an appropriate routine. Then using the equation above the inhibitor % activity remaining was calculated. The control was without inhibitor.

[2] = tested on: GBM cells (U251, U87 and 081024 cells); assay: Binding/internalization of biotinylated peptide, confocal fluorescence microscopy; assay type: cell-based, human; conditions: 0.5 mM labelled peptide
Procedure: FIG. 1 provides fluorescence staining of biotinylated peptide SEQ ID NO. 1 after 6 hours cell exposure (U251 cells and U87 cells) or 5 min cell exposure (081024 oncospheres). Upper right-hand panel: U251 cells, middle right-hand panel, U87 cells, lower right-hand panel, 081024 oncospheres. No peptide negative control (left side of each panel). […] Nuclei appear blue due to DAPI staining. Images were captured using a 100X objective and a Olympus FV3000 confocal microscope
To document binding and/or internalization of the peptides to the cells, biotinylated derivatives of the peptides were synthesised to allow detection by Cy3-conjugated avidin staining using confocal fluorescence microscopy.
U87 and U251 cells were seeded on 8-chamber polystyrene vessel tissue culture-treated glass slides (Falcon). After 24h, cells were incubated with biotinylated peptide (0.5 mM) containing serum free media for 5 min and 6 h. […] Cells were then rinsed and mounted on microscopic slides with DAPI-containing mounting medium for confocal fluorescence imaging analysis.
The ability of SEQ ID NO. 41 to bind and/or enter GBM cells was evaluated. In a first set of experiments, adherent GBM cells and non-adherent GBM cells were exposed to 0.5 mM labelled peptide for 6 h, processed and analysed by confocal immunofluorescence microscopy. […]

[3] = tested on: 081024 oncospheres; conditions: 081024, 1 μM, 24h
[4] = tested on: U251 cells; conditions: U251, 1 μM, 24h
Procedure: (§1) This assay, described in more detail below, is an in vitro surrogate for measurement of the in vivo invasion by tumour cells of their environment.
(§2) The cell invasion assay employs a simplified Boyden chamber-like design that consists of two chambers separated by a filter (an 8 μm polycarbonate (PC) membrane) coated with basement membrane or different extracellular matrix components. The cell suspension is placed in the top chamber and incubated in the presence of test media containing specific chemo-attractants in the bottom chamber. Cells migrate from the top chamber to the bottom of the filter by degrading the coating over the filter pores. Detection of cell invasion is quantified using Calcein AM. Cell dissociation/Calcein AM solution is placed in the bottom chamber to dissociate the migrating cells from the filter. Calcein AM is internalized by the cells, and intracellular-esterases cleave the aceto-methylester (AM) moiety.
(§3) The filter was coated with PathClear® growth factor reduced BME.
(§4) Cell invasion was determined using CultureCoat® 96 Well Medium BME Cell Invasion assay. Briefly, the cells were pre-starved 24h before harvest. Then seeding 25,000 per well of cell in the upper chamber with serum free medium together different concentration of peptide. […] After 24h incubation, the invading cells were measured by Calcein AM and calculated based on standard curve.

[5] = tested on: U87 cells; conditions: U87, 1 μM, 24h
Procedure: as §1, §2, §3, §4

T1 sequence (P08253 110-446 limits assumed): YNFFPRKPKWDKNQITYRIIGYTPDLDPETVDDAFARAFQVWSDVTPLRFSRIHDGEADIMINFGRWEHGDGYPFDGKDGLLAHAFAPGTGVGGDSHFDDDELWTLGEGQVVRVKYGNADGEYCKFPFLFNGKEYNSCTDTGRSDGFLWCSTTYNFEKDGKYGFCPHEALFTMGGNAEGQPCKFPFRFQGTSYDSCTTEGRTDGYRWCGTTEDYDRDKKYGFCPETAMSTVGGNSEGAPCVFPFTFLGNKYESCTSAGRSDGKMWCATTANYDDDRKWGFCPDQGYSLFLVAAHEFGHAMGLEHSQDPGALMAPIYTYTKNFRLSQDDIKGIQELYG

Compound: COc1ccc(S(=O)(=O)N(CC(=O)NO)CC(C)C)cc1 [NNGH, N-isobutyl-N-(4-methoxyphenylsulfonyl) glycyl hydroxamic acid, reference compound]
- % inhibition (MMP-2 inhibitor screening) ([1]; 1.3 μM): 2.29%

Compound: Biotin-tyr-gly-gly-phe-leu-arg-arg [SEQ ID NO. 41]
- binding/entry into GBM cells, Cy3 staining ([2]; 5 minutes exposure, U251, U87 and 081024 cells): already internalised
- binding/entry into GBM cells, Cy3 staining ([2]; 6 h exposure): bright intracellular fluorescence

Compound: Chlorotoxin
- Invasion Inhibition Index (%) [3]: 45.0%
- Invasion Inhibition Index (%) [4]: 28.50%
- % inhibition (MMP-2 inhibitor screening) ([1]; 1 μM): 67.94%
- Invasion Inhibition Index (%) [5]: 39.5%
